The structures appear in SMILES notation. Counter-ions that a name gives are not always drawn.

The term melting point denotes the temperature, or range, at which the solid turns liquid. As a reminder, the EC50 is the concentration at which the effect is half-maximal. Higher therefore signals weaker potency.

In one data set the test system is rabbit saphenous vein. Put plainly: Rabbit saphenous vein contraction. How it is done: Bend the tips of two 30-gauge stainless steel hypodermic needles into an L-shape and slip them into the lumen of the polyethylene tubing. Gently push vein tissue from the cannula onto the needles. Separate the needles and attach the lower needle with thread to a stationary glass rod and the upper needle with thread to a force transducer (Statham UC-3). Mount the tissues in organ baths containing 10 mL of modified Krebs' solution. Maintain tissue bath solutions at 37° C. and […] […] Apply an initial optimum resting force of 4 grams to the vein tissue. Record isometric contractions as changes in grams of force on a Beckman Dynograph with Statham UC-3 transducers and microscale accessory attachments. […] Flush the bath, allow the tissue to re-equilibrate under a 4 gram force, add test compound and record the force of contraction. Add additional compound to achieve the next concentration in a range of compound concentrations to generate cumulative agonist concentration-response curves for each test compound. Tissues can be used to generate up to two agonist concentration-response curves. […] Two important parameters can be measured with this vasoconstriction assay, saphenous vein contraction (EC50) and maximal contraction as a percentage of the maximal KCl response (%max KCl).

For `CN1CCC(N(C)c2cccc(NC(=O)c3ccccc3OC(F)(F)F)n2)CC1.Cl` (hydrate or solvate), the melting point was 102 to 104 °C.
The same measure, in the same setting: next, `CN1CCC(Nc2cccc(NC(=O)c3c(F)cccc3F)c2)CC1.Cl.Cl`: 198 °C (dec.).
The same measure, in the same setting: next, `CCN1CCC(N(C)c2cccc(NC(=O)c3ccc(F)cc3Cl)n2)CC1.Cl`: 132.9 °C; `CN1CCC(N(C)c2cccc(NC(=O)c3ccccc3Cl)n2)CC1.Cl` (hydrate or solvate): 90 to 92 °C.
Same read-out and setting: next, `CN1CCC(Nc2cccc(NC(=O)c3ccc(F)cc3C(F)(F)F)n2)CC1.Cl`: 84.9 °C; `CN1CCC(N(C)c2cccc(NC(=O)c3cccs3)n2)CC1.Cl`: 126 to 128 °C.
Turning to `CN1CCC(N(C)c2cccc(NC(=O)c3ccc(F)cc3Cl)c2)CC1.Cl.Cl`, the melting point was 172 °C.
Turning to `CNS(=O)(=O)Cc1ccc2[nH]cc(CCN(C)C)c2c1` [sumatriptan], the “corrected vasoconstriction EC50 (EC50 divided by %max KCl)” value with rabbit saphenous vein worked out at 10.3 nM. For the same compound, it took 660 nM to reach a half-maximal effect in the data set with rabbit saphenous vein (Oryctolagus cuniculus) (EC50).
As for `CN1CCC(Nc2cccc(NC(=O)c3ccc(F)c(F)c3F)n2)CC1.Cl`, the melting point was 231.4 °C (dec.).
On the same count and under the same terms, next, `CCN1CCC(N(C)c2cccc(NC(=O)c3ccc(F)cc3)n2)CC1.Cl`: 75.6 °C; `CCC(=O)Nc1cccc(N(C)C2CCN(C)CC2)n1.Cl` (hydrate or solvate): 216 to 218 °C; `CN1CCC(N(C)c2cccc(NC(=O)C3CCCCC3)n2)CC1.Cl`: 250 to 252 °C.
On the same count and under the same terms, the same measure for `CN(c1cccc(NC(=O)c2ccc(F)cc2Cl)n1)C1CCNCC1.Cl`: 152.1 °C; for `CCCN1CCC(N(C)c2cccc(NC(=O)c3ccc(F)cc3Cl)n2)CC1.Cl`: 258 °C (dec.).
Still for that read-out and setting: the same measure for `CN(c1cccc(NC(=O)c2ccc(F)cc2Cl)n1)C1CCN(CC2CC2)CC1.Cl`: 257.5 °C.
Turning to `CN1CCC(N(C)c2cccc(NC(=O)c3ccccc3C(F)(F)F)c2)CC1.Cl`, the melting point worked out at 84.5 °C.
Same read-out and setting: next, `C[C@H]1C[C@@H](Nc2cccc(NC(=O)c3ccc(F)cc3Cl)c2)CCN1C.Cl`: 91 to 94 °C.
The same measure, in the same setting: next, `CN1CCC(N(C)c2cccc(NC(=O)c3ccncc3)n2)CC1.Cl` (hydrate or solvate): 274 to 277 °C.
Same read-out and setting: next, `CN1CCC(N(C)c2cccc(NC(=O)c3ccc(F)cc3C(F)(F)F)n2)CC1.Cl` (hydrate or solvate): 100 to 102 °C; `CN1CCC(N(C)c2cccc(NC(=O)c3ccc(F)cc3)n2)CC1.Cl` (hydrate or solvate): 250 to 252 °C; `CN1CCC(N(C)c2cccc(NC(=O)C3CCC3)n2)CC1.Cl` (hydrate or solvate): 258 to 260 °C.
As to `CN1CCC(Nc2cccc(NC(=O)c3ccccc3OC(F)(F)F)c2)CC1.Cl.Cl`, the melting point lay in the range of 159 to 162 °C.
The same measure, in the same setting: next, `CN1CCC(N(C)c2cccc(NC(=O)c3ccc(F)cc3Cl)n2)CC1.Cl` (hydrate or solvate): 229 to 231 °C.
Same read-out and setting: the same measure for `CN1CCC(N(C)c2cc(F)cc(NC(=O)c3ccccc3Cl)c2)CC1` (as salt: hydrochloric acid salt) (hydrate or solvate): 170 to 175 °C; for `CN1CCC(N(C)c2cccc(NC(=O)c3ccc(F)cc3F)c2)CC1.Cl.Cl`: 165 to 168 °C; for `C[C@H]1C[C@@H](Nc2cccc(NC(=O)c3ccc(F)cc3Cl)c2)CCN1.Cl`: 202 °C (dec.).
Still for that read-out and setting: next, `CN1CCC(Nc2cccc(NC(=O)c3c(F)cccc3Cl)c2)CC1.Cl.Cl`: 192 to 194 °C; `CN1CCC(N(C)c2cccc(NC(=O)c3ccco3)n2)CC1.Cl` (hydrate or solvate): 116 to 119 °C; `CN1CCC(Nc2cccc(NC(=O)c3c(F)cc(F)cc3F)c2)CC1.Cl.Cl`: 257 °C (dec.).
As for `C[C@@H]1C[C@H](Nc2cccc(NC(=O)c3ccc(F)cc3Cl)c2)CCN1.Cl`, the melting point lay within 182 to 185 °C.
The same measure, in the same setting: next, `Cc1ccccc1C(=O)Nc1cccc(N(C)C2CCN(C)CC2)c1.Cl`: 82.4 °C; `CN1CCC(N(C)c2cccc(NC(=O)c3c(F)cc(F)cc3F)n2)CC1.Cl` (hydrate or solvate): 302 °C (dec.).
Still for that read-out and setting: the same measure for `CN1CCC(N(C)c2cccc(NC(=O)c3c(Cl)cccc3Cl)c2)CC1.Cl`: 164.2 °C; for `CN1CCC(N(C)c2cc(F)cc(NC(=O)c3ccc(F)cc3)c2)CC1` (as salt: hydrochloric acid salt): 175 °C; for `Cl.Cl.O=C(Nc1cccc(NC2CCNCC2)c1)c1ccc(F)cc1Cl`: 255 to 257 °C.
Still for that read-out and setting: next, `CN1CCC(Nc2cccc(NC(=O)c3ccccc3Br)c2)CC1.Cl.Cl`: 192 to 193 °C; `CN1CCC(N(C(=O)C2CC2)c2cccc(NC(=O)c3ccc(F)cc3Cl)c2)CC1.Cl`: 133 to 136 °C; `CN1CCC(Nc2cccc(NC(=O)c3ccc(F)cc3F)c2)CC1.Cl.Cl`: 262 °C (dec.).
`C[C@@H]1C[C@H](Nc2cccc(NC(=O)c3ccc(F)cc3Cl)c2)CCN1C.Cl` returned a melting point of 159 to 162 °C.
The same measure, in the same setting: next, `CC(C)n1cc(CCN2CCC(N(C)c3cccc(NC(=O)c4ccc(F)cc4)n3)CC2)cn1.Cl`: 85.8 °C; `CN1CCC(N(C)c2cccc(NC(=O)c3c(F)cccc3F)n2)CC1.Cl` (hydrate or solvate): 308 °C (dec.).
With `CN1CCC(N(C)c2cccc(NC(=O)c3ccccc3Br)c2)CC1.Cl.Cl`, the melting point fell in the range of 196 to 197 °C.
On the same count and under the same terms, next, `CN1CCC(Nc2cccc(NC(=O)c3ccccc3Cl)c2)CC1.Cl.Cl`: 206 to 208 °C.
Still for that read-out and setting: next, `CN1CCC(N(C)c2cc(F)cc(NC(=O)c3ccc(F)cc3F)c2)CC1` (as salt: hydrochloric acid salt): 175 °C; `CN(c1cccc(NC(=O)c2ccc(F)cc2)n1)C1CCN(CC2CC2)CC1.Cl`: 81.6 °C; `CN1CCC(N(C)c2cc(F)cc(NC(=O)c3sccc3Br)c2)CC1` (as salt: hydrochloric acid salt): 175 to 180 °C.
The same measure, in the same setting: the same measure for `CN(c1cccc(NC(=O)c2ccc(F)cc2)n1)C1CCNCC1.Cl`: 152.4 °C.
The compound `CN1CCC(N(C)c2cccc(NC(=O)c3c(F)cccc3Cl)c2)CC1.Cl.Cl` displayed a melting point of 214 to 217 °C.
Turning to `CCCN1CCC(N(C)c2cccc(NC(=O)c3ccc(F)cc3)n2)CC1.Cl`, the melting point was found to be 84.7 °C.
Same read-out and setting: next, `CN1CCC(N(C)c2cccc(NC(=O)c3ccc(F)cc3)c2)CC1.Cl`: 76.1 °C; `CN1CCC(N(C)c2cccc(NC(=O)c3c(F)cccc3Cl)n2)CC1.Cl` (hydrate or solvate): 283 to 286 °C.
Same read-out and setting: next, `CC(C)n1cc(CCN2CCC(N(C)c3cccc(NC(=O)c4ccc(F)cc4Cl)n3)CC2)cn1.Cl`: 96.7 °C.
Same read-out and setting: the same measure for `CN1CCC(N(C)c2cccc(NC(=O)c3c(F)cc(F)cc3F)c2)CC1.Cl.Cl`: 199 to 200 °C.
Compound `CN1CCC(Nc2cccc(NC(=O)c3ccc(F)cc3Cl)c2)CC1.Cl.Cl` had a melting point of 180 °C.
The same measure, in the same setting: next, `CN1CCC(N(C)c2cccc(NC(=O)C3CC3)n2)CC1.Cl` (hydrate or solvate): 258 to 260 °C.

Source of the values: patent publication US7803813B2, “Substituted 2-carbonylamino-6-piperidinaminopyridines and substituted 1-carbonylamino-3-piperidinaminobenzenes as 5-HT1F agonists” (Eli Lilly and Company, priority 2003, dated 2010).
